# Data from the pKa sets of Baltruschat and Czodrowski (2020).
# Settings: acidic group
row,Structure (SMILES),pKa
1,Cc1ccc(S(=O)(=O)NCC[NH+](CC(=O)[O-])CC(=O)[O-])cc1,7.86
2,CC(C)(C(=O)O)C(C(N)=O)c1ccccc1 (configuration not stated),4.8
3,CC#CC#CC=C=C[C@@H](O)CCC(=O)O,4.9
4,O=C1CCC(=O)C1,4.5
5,O=[N+]([O-])c1ccc(NS(=O)(=O)c2ccccc2)cc1,6.63
6,CNC(=O)Oc1ccc2c(c1)[C@@]1(C)CC[NH+](C)[C@H]1N2C,6.12
7,Oc1nc([S-])nc2nc[nH]c12,10.3
8,Cc1ccc(C(=O)O)[nH]1,5
9,CCOC(=O)C(CC)C(C)=O (configuration not stated),12.7
10,CC(C)c1cccc(C(=O)O)c1,4.27
11,Cc1ccc(C(=O)O)cc1O,4.32
12,O=C(O)CCc1cccs1,4.34
13,C/C(=C\Cl)C(=O)O,4.03
14,O=C(O)C1C2CCC1CC2 (configuration not stated),4.85
15,O=c1cc(-c2ccccc2)oc2ccc(O)cc12,9.09
16,[NH3+][C@H]1CCCC[C@@H]1C(=O)O,3.59
17,COc1cc(S(C)=O)ccc1-c1nc2[nH]ncc2[nH]1 (configuration not stated),12
18,C[NH+](C)c1ccccc1C(=O)O,1.4
19,O=C(C[n+]1cccc2c3ccccc3ccc21)c1ccc(-c2ccccc2)cc1,11.2
20,COc1ccc(/C=N/O)cc1,11
21,C(CSCCc1nnn[nH]1)SCCc1nnn[nH]1,5
22,Cc1c(-c2ccccc2)nn(-c2ccccc2)c1O,7.8
23,COC(=O)c1ccc(NC=S)cc1,10.9
24,CCN(CC)S(=O)(=O)c1ccccc1C(=O)O,2.96
25,O=C(O)CCCc1c[nH]c[nH+]1,4.26
26,Cc1cc(C(=O)O)c[nH]1,5.35

row,Structure (SMILES),pKa
1,[O-]N=C1/C(=N/O)CCC/C1=N\O,11.1
2,CO[n+]1ccccc1N,12.4
3,Cc1ccc(C(=O)C[S+](C)C)cc1,8.9
4,O=C(O)c1cnccn1,2.7
5,CC(=O)N1CS(=O)C[C@H]1C(=O)O (some centres not stated),2.5
6,[NH3+]C(CC(=O)O)C(=O)NC(CC(=O)O)C(=O)O (configuration not stated),2.7
7,O=C(O)Cc1nnn[nH]1,3.1
8,NC(=S)Nc1cccc([N+](=O)[O-])c1,11.1
9,O=C1NC(=O)c2cc([N+](=O)[O-])ccc21,8.68
10,[NH3+]CC(=O)N[C@@H](Cc1c[nH]c[nH+]1)C(=O)O,2.61
11,CC[NH+](CC)Cc1c(O)cccc1Cl,7.5
12,NC(=[NH2+])NOCC(=O)O,2.69
13,CN(C)c1ccc(NC(=O)/C=N/O)cc1,9.26
14,Cc1nc(NS(=O)(=O)c2ccc(N)cc2)sc1C,6.97
15,Cc1cc(=O)oc2cccc(O)c12,8.26
16,O=C(O)[C@@H]1O[C@H](Oc2ccc3[nH+]cccc3c2)[C@@H](O)[C@H](O)[C@H]1O,3
17,O=S1(=O)Nc2cccc3cccc1c23,6.2
18,O=C(O)C[Se]c1cccc([N+](=O)[O-])c1,3.55
19,Oc1ccc(O)c2ncccc12,9.3
20,O=c1cc(-c2ccccc2O)oc2ccccc12,8.85
21,Cc1cc(O)cc([N+](C)(C)C)c1,8.2
22,[O-]c1nc(O)nn1-c1ccccc1,12.2
23,OB(O)c1ccccc1,8.74
24,NS(=O)(=O)c1nnc(Nc2ccccc2)s1,7.7
25,CCN(CC)C(=S)NC(=O)c1cccc(C)c1,8.36
26,CCC[n+]1cccc2cc(O)ccc21,7.08

row,Structure (SMILES),pKa
1,NCCc1ccc(O)cc1,10.8
2,O=[N+]([O-])c1cc2cc(O)ccc2cc1Cl,8.56
3,NNC(=O)C(F)(F)C1(F)OC(F)(F)C(F)(F)C1(F)F (configuration not stated),8.26
4,Brc1ccc2c(c1)-c1ccccc1C2[P+](c1ccccc1)(c1ccccc1)c1ccccc1 (configuration not stated),7.53
5,O=[N+]([O-])c1ccc(S(=O)(=O)Nc2ccccc2)cc1,7.41
6,O=C(O)C12CCC(CC1)C2,4.89
7,Oc1ccc2cccnc2c1,8.85
8,O=C(O)c1ccccc1Cl,2.95
9,CC[NH+](CC)Cc1cccc(C)c1O,10
10,S=C(NC(=S)c1ccccc1)Nc1ccccc1,10.7
11,[NH3+][C@@H](Cc1[nH+]c[nH]c1I)C(=O)O,1.65
12,CNC(=O)c1ccccc1O,8.03
13,CCCCc1c(-c2ccccc2)n[nH]c1O,8.2
14,O=C(O)[C@H]1CCCC[C@@H]1O,4.68
15,O=C(O)CC#Cc1ccccc1,3.44
16,O=C(O)c1cccc([N+](=O)[O-])c1,3.47
17,CCOC(=O)/C(=N\O)C(C)=O,7.2
18,Cc1ccc(Sc2ccc([N+](=O)[O-])cc2C(=O)O)cc1,2.84
19,Oc1nc2nc[nH]c2c[nH+]1,1.69
20,CCC1=CC(=O)C=C(CC)C1=NO,8.34
21,O=C(O)[C@@H](O)Cc1c[nH]c[nH+]1,2.99
22,Cc1ccc(C(=O)c2cc[nH]n2)cc1,12
23,CC(C)C1CC(CC(=O)O)[NH2+]C1C(=O)O (configuration not stated),2.1
24,O=C1CCc2cc(Cl)ccc2C1,12.5
25,COc1cccc(C)c1C(=O)O,3.46
26,Cc1ccc([P+](c2ccc(C)cc2)(c2ccc(C)cc2)C2c3ccccc3-c3ccccc32)cc1,9.64

# Same assay, conditions: basic group
row,Structure (SMILES),pKa
1,CNc1ncnc2scnc12,2.84
2,Cc1ccc(S(=O)(=O)N2CCNCC2)cc1,7.41
3,CCCNC1c2ccccc2C=Cc2ccccc21,8.9
4,O=C(CCN1CCOCC1)c1ccccc1,6.5
5,CCOCCN(C)c1ccccc1,4.8
6,CC[NH+](CC)CCNc1nc(N)nc(C)c1C,7.9
7,Cc1nc(N(C)C)nc(OC(=O)N(C)C)c1C,4.53
8,COC(=O)[C@@H]([NH3+])Cc1c[nH]cn1,5.38
9,C1CCc2c(nnc3c2CCCC3)C1,6.12
10,c1ccc(-c2ccncc2)cc1,5.3
11,Cc1nc(N)c2cnn(-c3ccccc3)c2n1,4.52
12,Nc1ccc2[nH]c(Cc3ccccc3)[nH+]c2c1,3.3
13,Cc1ncnc2nccnc12,2.92
14,COc1ccc(C=O)cc1C(=O)N[C@@H]1C[C@H]2CC[C@@H](C1)N2Cc1ccccc1,8.74
15,CCCc1c(C)[n-]n(C2CCN(C)CC2)c1=O,9.2
16,Cc1nc2cncnc2nc1C,2.93
17,CN(C)CCCC(=O)Oc1cccc([N+](=O)[O-])c1,9.82
18,Cc1cc(C)n(C)n1,3.96
19,CC1=C[C@H]2CC[C@@H](O)[C@H]2N1C,11.7
20,Cc1cc2ccccc2nc1C,4.93
21,N#CCC(N)c1ccccc1 (configuration not stated),6.7
22,COc1ccc2ccc(OC)c(N3CCOCC3)c2c1N1CCOCC1,13
23,CCCSC(=N)c1ccccc1,8.1

row,Structure (SMILES),pKa
1,CCC(N)(CC)CC,10.9
2,CN/C=N/c1cccc(-c2csc(N=C(N)N)n2)c1,8.29
3,COc1cc(S(C)=O)ccc1-c1nc2[nH]ncc2[nH]1 (configuration not stated),3.8
4,N[C@H]1C[C@@H]2CCCC[C@H]2C[C@@H]1N,9.97
5,Cc1cc(Br)ccc1N,3.58
6,CN(C)c1ccc(/C=N/c2ncc3nc[nH]c3n2)cc1,5.26
7,C1CC2CC1NN2,7.94
8,Cc1cccc(CCCCCCCC(=O)[O-])n1,7
9,Cc1cccc(C)n1,6.85
10,C#CC(C)(C)Nc1ccccc1,4.26
11,[O-]c1ccc(O)c2ccccc12,11
12,C[NH+](C)CCC/N=C(\c1ccccc1)c1ccc2ccccc2c1,5.1
13,CC1(C)[C@@H](N)[C@@H]1[NH3+],5.97
14,CN(C)CCC(C#N)(c1ccccc1)c1ccccc1,8.31
15,O=[PH]([O-])C([NH2+]Cc1ccccn1)c1ccccc1O (configuration not stated),3.25
16,Cc1cc([O-])nc(-n2nc(C)cc2O)n1,10
17,N/C(Cc1ccccc1)=N\O,5.32
18,CN(C)c1ccc(C(O)(c2ccccc2)c2ccc(N(C)C)cc2)cc1,6.93
19,CCN(CC)c1nc(N)nc(N)n1,5.61
20,O=C(O)c1cnccn1,-0.7
21,CN(C)CC(=O)[O-],9.81
22,CC(C)(C)NNC(C)(C)C,8.31
23,CN1CCc2cccc(c2)CCc2ccc1cc2,6.76

row,Structure (SMILES),pKa
1,O=[N+]([O-])c1ccc([O-])c(CN2CCCCC2)c1,10.5
2,CCN(C(C)C)C(C)C,11.4
3,C1CCCNCCCCCCNCC1,9.6
4,CN(C)CCC(=O)C(C)(C)C,9.49
5,Cc1cnncc1C,4.13
6,CN(C)c1ccc(NC(=O)/C=N/O)cc1,4.94
7,O=C([O-])c1cccc2cc3ccccc3nc12,7.72
8,CCOCCn1c(CN2CCCN(CCCCn3cccn3)CC2)nc2ccccc21,9.2
9,Oc1ccc(O)c2ncccc12,4.5
10,NCCc1ccc(O)cc1,9.45
11,CC(=O)Nc1cccc2nc3ccccc3cc12,4.4
12,O=[N+]([O-])c1ccc(C2NCCS2)cc1 (configuration not stated),4.55
13,CCCCCCCCCCCCN(CC(C)O)CC(C)O (configuration not stated),7.8
14,COc1ccc(NCCS)cc1,5.3
15,N#Cc1ccccn1,-0.26
16,CN1CCC(n2nc(-c3ccccc3)c(Cc3ccccc3)c2[O-])CC1,9.13
17,NNCCO,7.12
18,Oc1ccc2cccnc2c1,5.48
19,CN(C)/C=N/c1ccc([N+](=O)[O-])cc1,6.71
20,CC[NH+](CC)CCCC(C)Nc1cc[nH+]c2ccc(OC)cc12 (configuration not stated),-7.83
21,c1cc2nccnc2cn1,2.5
22,COc1ccc([N+](=O)[O-])cc1C(=O)N[C@@H]1C[C@H]2CC[C@@H](C1)N2Cc1ccccc1,8.7
23,Cn1cnc2ncn(C)c2c1=O,2.16

row,Structure (SMILES),pKa
1,Cc1ccc(/N=C/N(C)C)cc1,9.21
2,CN(C)CCO,9.36
3,C1CN2CC[C@@H]3OC[C@H]1[C@@H]32,9.44
4,CCC(C)(C)N(C)C(C)C,11.2
5,COc1cccc(NCCS)c1,5.18
6,CCCCCCCCCCCCNc1ccccc1,4.12
7,CN(C)CCC(=O)[O-],9.85
8,N[C@H](c1ccccc1)[C@H](O)c1ccccc1,10.5
9,C=C(C)C(=O)NC(C)CN(C)C (configuration not stated),8.51
10,COC(=O)c1cccc(N)c1,3.55
11,O=C(Nc1ccccn1)c1ccccc1,3.33
12,Nc1ccc(-c2ccccc2)cc1,4.38
13,CCc1ccc(O)c(CN(C)C)c1,8.51
14,CNc1nc(C)nc2c1cnn2C,5
15,Cc1cc(N)ncn1,6.25
16,CC(C)/N=C/N(C)c1ccc(-c2c[nH]cn2)cc1,10.4
17,CC(=O)c1ccc([O-])c(CN(C)C)c1,10
18,CN(C)c1ccc([N+](=O)[O-])c2c(NCCC[NH+](C)C)c3ccccc3nc12,6.47
19,NCC[NH2+]Cc1ccccc1,6.48
20,NNC(=O)c1ccc([NH3+])cc1,2.05
